SMILES strings stand for the structures. Peptide text beside a SMILES is read from it.

This data set has as its system PC12 cells. The data set can be described thus: Cell proliferation side effect, MTS assay. Conditions: peptide 1 pM to 0.5 nM, 48 hours, FIG. 4. It is filed as cell-based. The method, then:
Side effects such as cell proliferation were determined for the three peptides (ML1-L2, ML1-K2, and ML1-R2) prepared in Example 4.
In detail, to determine cell proliferation degree, an MTS assay (CellTiter 96 Aqueous One Solution Cell Proliferation Assay, Promega, Madison, Wis., USA) was performed. […] The initial number of cells (0 hour) and the number of cells after 48 hours were counted. Intracellular soluble formazan produced by cell reduction was determined by recording absorbance of each 96-well plate at a wavelength of 490 nm using a VERSA MAX.
For the compound `CC(C)C[C@H](NC(=O)CNC(=O)[C@H](CO)NC(=O)[C@@H](NC(=O)[C@H](C)NC(=O)[C@H](CCCCN)NC(=O)[C@H](CC(=O)O)NC(=O)[C@@H](NC(=O)[C@H](Cc1c[nH]cn1)NC(=O)[C@@H](N)CCCCN)C(C)C)C(C)C)C(=O)N[C@@H](CCCNC(=N)N)C(=O)N[C@@H](CO)C(=O)N[C@@H](CC(C)C)C(=O)N[C@H](C(=O)N[C@H](C(=O)N[C@@H](CCCCN)C(=O)O)[C@@H](C)O)[C@@H](C)O` [ML1-K2] (H-KHVDKAVSGLRSLTTK-OH), the “cell proliferation rate (side effect)” value was “no side effect of cell proliferation”. The entry for `CC(C)C[C@H](NC(=O)CNC(=O)[C@H](CO)NC(=O)[C@@H](NC(=O)[C@H](C)NC(=O)[C@H](CCCCN)NC(=O)[C@H](CC(=O)O)NC(=O)[C@@H](NC(=O)[C@H](Cc1c[nH]cn1)NC(=O)[C@@H](N)CCCNC(=N)N)C(C)C)C(C)C)C(=O)N[C@@H](CCCNC(=N)N)C(=O)N[C@@H](CO)C(=O)N[C@@H](CC(C)C)C(=O)N[C@H](C(=O)N[C@H](C(=O)N[C@@H](CCCNC(=N)N)C(=O)O)[C@@H](C)O)[C@@H](C)O` [ML1-R2] (H-RHVDKAVSGLRSLTTR-OH) is “no side effect of cell proliferation”; for `CC(C)C[C@H](NC(=O)[C@@H](NC(=O)[C@@H](NC(=O)[C@H](CC(C)C)NC(=O)[C@H](CO)NC(=O)[C@H](CCCNC(=N)N)NC(=O)[C@H](CC(C)C)NC(=O)CNC(=O)[C@H](CO)NC(=O)[C@@H](NC(=O)[C@H](C)NC(=O)[C@H](CCCCN)NC(=O)[C@H](CC(=O)O)NC(=O)[C@@H](NC(=O)[C@H](Cc1c[nH]cn1)NC(=O)[C@@H](N)CC(C)C)C(C)C)C(C)C)[C@@H](C)O)[C@@H](C)O)C(=O)O` [ML1-L2] (H-LHVDKAVSGLRSLTTL-OH) it is “no side effect of cell proliferation”.
